Assays:
L1210 leukaemia = test: anti-tumor activity against L1210 leukaemia in CDF1 male mice, i.p. single dose Day 1; type: in vivo; parameters: median survival time (MST): unit not given here; conditions: for % T/C (MST/MST control×100) / median survival time (MST): single dose Day 1; for number of mice alive (MA) / average weight change (AWC): single dose; for number of mice alive (MA): at Day 5; for average weight change (AWC): by Day 5
Experimental: (§1) Compounds according to the invention were screened for anti-tumor activity against L1210 leukaemia and B16 melanoma in mice. The compounds were administered intraperitoneally as solutions or suspensions in water and "Tween" 80 as carrier to CDF1 male mice (L1210) and BDF1 female mice (B16). […] For each dose level, results are quoted in terms of median survival time (MST); the comparative effect (i.e. MST/MST control×100); average weight change (AWC) by Day 5 (L1210) or Day 6 (B16); and the number of mice alive (MA) at Day 5 (L1210) or Day 10 (B16).
(§2) Results were as follows for the compounds as prepared in Examples 3 and 4.
1. L1210 (1×10^6 cells): treatment consisted of single dose on Day 1.

B16 melanoma = test: anti-tumor activity against B16 melanoma in BDF1 female mice, i.p. 9 daily doses; type: in vivo; parameters: median survival time (MST): unit not given here; conditions: for % T/C (MST/MST control×100) / median survival time (MST): 9 daily doses from Day 1; for number of mice alive (MA) / average weight change (AWC): 9 daily doses; for number of mice alive (MA): at Day 10; for average weight change (AWC): by Day 6
Experimental: as §1, §2
2. B16 (0.5 ml 10% BREI): treatment consisted of 9 daily doses beginning at Day 1.

ADJ/PC6A plasmacytoma = test: activity against ADJ/PC6A plasmacytoma grown subcutaneously in mice, oral administration; type: in vivo, female Balb C^- mice; conditions: for ED90 (dose level causing a 90% reduction in tumor size): suspension in arachis oil
Experimental: (§3) Additionally, the same compounds were tested for activity against ADJ/PC6A plasmacytoma grown subcutaneously in female Balb C^- mice following oral administration as a suspension in arachis oil. Dosage levels were at 100μ mole/kg of body weight for pharmacokinetic tests to establish the extent of absorption into the systemic circulation.
(§4) Results are presented in terms of concentration (μg/ml) of Pt in the blood and cumulative percentage dose in urine, cage wash and faeces, all after specified time intervals. Results for anti-tumor effect are expressed as LD50 (mg/kg), ED90 (mg/kg), and TI (LD50 /ED90). The figures for LD50 (the dose level causing 50% deaths) and ED90 (the dose level causing a 90% reduction in tumor size) are determined by administering dosage levels ranging from lethal to non-tumor inhibitory. The therapeutic index (TI) is an indication of the selectivity of the compound as an anti-tumor agent.

malignant tumor = conditions: cited from earlier work
[1] = pharmacokinetic tests: Pt in blood and cumulative percentage dose in urine, cage wash and faeces after oral administration; type: in vivo, female Balb C^- mice; conditions: oral, JM-8 at 50 mg/kg
Experimental: as §3, §4

[2] = LD50 (dose level causing 50% deaths), oral administration; type: in vivo, female Balb C^- mice; conditions: suspension in arachis oil
Experimental: as §3, §4

[3] = reported by Harrap; cited from earlier work

In the case of `N.N.[Cl][Pt][Cl]` [cisplatin, cis-diamminedichloroplatinum(II), reference compound], the “% T/C (MST/MST control×100)” value (L1210 leukaemia; 4 mg/kg) is reported as 146%, the “median survival time (MST)” value (L1210 leukaemia; 4 mg/kg) is reported as 9.5 and the “number of mice alive (MA)” value (L1210 leukaemia; 4 mg/kg) is reported as 6/6. The “average weight change (AWC)” value (L1210 leukaemia; 4 mg/kg) was -0.8 g, the “% T/C (MST/MST control×100)” value (L1210 leukaemia; 6 mg/kg) was 169% and the “median survival time (MST)” value (L1210 leukaemia; 6 mg/kg) was 11.0. The “number of mice alive (MA)” value (L1210 leukaemia; 6 mg/kg) was 6/6, the “average weight change (AWC)” value (L1210 leukaemia; 6 mg/kg) was -3.2 g and the “% T/C (MST/MST control×100)” value (L1210 leukaemia; 8 mg/kg) was 192%. For the same molecule, the “median survival time (MST)” value (L1210 leukaemia; 8 mg/kg) was 12.5, the “number of mice alive (MA)” value (L1210 leukaemia; 8 mg/kg) was 6/6 and the “average weight change (AWC)” value (L1210 leukaemia; 8 mg/kg) was -4.6 g. The “% T/C (MST/MST control×100)” value (L1210 leukaemia; 10 mg/kg) was 123%, the “median survival time (MST)” value (L1210 leukaemia; 10 mg/kg) was 8.0 and the “number of mice alive (MA)” value (L1210 leukaemia; 10 mg/kg) was 6/6. For the same molecule, the “average weight change (AWC)” value (L1210 leukaemia; 10 mg/kg) was -4.7 g, the “% T/C (MST/MST control×100)” value (B16 melanoma; 0.4 mg/kg) was 131% and the “median survival time (MST)” value (B16 melanoma; 0.4 mg/kg) was 25.5. For the same molecule, the “number of mice alive (MA)” value (B16 melanoma; 0.4 mg/kg) was 10/10, the “average weight change (AWC)” value (B16 melanoma; 0.4 mg/kg) was -0.9 g and the “% T/C (MST/MST control×100)” value (B16 melanoma; 0.8 mg/kg) was 164%. The “median survival time (MST)” value (B16 melanoma; 0.8 mg/kg) was 32.0, the “number of mice alive (MA)” value (B16 melanoma; 0.8 mg/kg) was 10/10 and the “average weight change (AWC)” value (B16 melanoma; 0.8 mg/kg) was -1.5 g. The “% T/C (MST/MST control×100)” value (B16 melanoma; 1.6 mg/kg) was 187%, the “median survival time (MST)” value (B16 melanoma; 1.6 mg/kg) was 36.5 and the “number of mice alive (MA)” value (B16 melanoma; 1.6 mg/kg) was 10/10. For the same molecule, the “average weight change (AWC)” value (B16 melanoma; 1.6 mg/kg) was -3.1 g, the “% T/C (MST/MST control×100)” value (B16 melanoma; 2.4 mg/kg) was 231% and the “median survival time (MST)” value (B16 melanoma; 2.4 mg/kg) was 45.0. For the same molecule, the “number of mice alive (MA)” value (B16 melanoma; 2.4 mg/kg) was 10/10, the “average weight change (AWC)” value (B16 melanoma; 2.4 mg/kg) was -3.9 g and the “ED90 (dose level causing a 90% reduction in tumor size)” value (ADJ/PC6A plasmacytoma) was 24 mg/kg. The “treatment of malignant tumor” value (malignant tumor; certain forms of malignant tumor in humans) was “effective for the treatment of certain forms of malignant tumor in humans”.
In the case of `[NH2][Pt]1([NH2])[O]C(=O)C2(CCC2)C(=O)[O]1` [JM-8, reference compound], the “% T/C (MST/MST control×100)” value (L1210 leukaemia; 4 mg/kg) is reported as 100%, the “% T/C (MST/MST control×100)” value (L1210 leukaemia; 8 mg/kg) is reported as 121% and the “% T/C (MST/MST control×100)” value (L1210 leukaemia; 16 mg/kg) is reported as 143%. The “% T/C (MST/MST control×100)” value (L1210 leukaemia; 32 mg/kg) was 171%, the “% T/C (MST/MST control×100)” value (L1210 leukaemia; 64 mg/kg) was 150% and the “% T/C (MST/MST control×100)” value (L1210 leukaemia; 128 mg/kg) was 86%. The “% T/C (MST/MST control×100)” value (B16 melanoma; 2 mg/kg) was 112%, the “% T/C (MST/MST control×100)” value (B16 melanoma; 4 mg/kg) was 115% and the “% T/C (MST/MST control×100)” value (B16 melanoma; 8 mg/kg) was 150%. The “% T/C (MST/MST control×100)” value (B16 melanoma; 16 mg/kg) was 176%, the “% T/C (MST/MST control×100)” value (B16 melanoma; 32 mg/kg) was 176% and the “Blood conc. of Pt” value ([1]; 1 hr) was 2.4 μg/ml of whole blood. The “Blood conc. of Pt” value ([1]; 2 hrs) was 1.7 μg/ml of whole blood, the “Blood conc. of Pt” value ([1]; 4 hrs) was 0.72 μg/ml of whole blood and the “Blood conc. of Pt” value ([1]; 7 hrs) was 0.63 μg/ml of whole blood. The “Blood conc. of Pt” value ([1]; 24 hrs) was 0.25 μg/ml of whole blood, the “Urine dose (cumulative %)” value ([1]; 24 hrs) was 10.3% and the “Blood conc. of Pt” value ([1]; 48 hrs) was 0.25 μg/ml of whole blood. The “Urine dose (cumulative %)” value ([1]; 48 hrs) was 10.8%, the “therapeutic index TI (LD50/ED90)” value (ADJ/PC6A plasmacytoma) was 2.4 and the “ED90 (dose level causing a 90% reduction in tumor size)” value (ADJ/PC6A plasmacytoma) was 99 mg/kg. For the same molecule, the “LD50 (dose level causing 50% deaths)” value [2] was 235 mg/kg, the “Phase I clinical trial outcome” value (malignant tumor; Phase I, reported by Harrap) was “reasonably promising on a Phase I clinical trial” and the “side-effects in Phase I clinical trial” value (malignant tumor; Phase I, reported by Harrap) was “myelosuppression and to a lesser extent vomiting remained troublesome”.
In the case of `CCC(C(=O)[O-])C(=O)[O-].N.N.[Pt+2]` [JM-10, diammine(2-ethylmalonato)-platinum(II)], the screening results [3] is listed as “only moderately promising on screening results”.
In the case of `N.N.O=C([O-])C(O)C(=O)[O-].[Pt+2]` [JM-5, diammine(2-hydroxymalonato)platinum(II)], the screening results [3] is listed as “only moderately promising on screening results”.
